{
  "source": "patent US9593097B2",
  "about": "“Axl inhibitors” (Pfizer Inc., priority 2014, dated 2017)",
  "data": [
    {"target": "Axl phosphorylation in 293MSR-AxlWT6 cells (Homo sapiens (Human), UniProt P30530)", "sequence (P30530 26-894)": "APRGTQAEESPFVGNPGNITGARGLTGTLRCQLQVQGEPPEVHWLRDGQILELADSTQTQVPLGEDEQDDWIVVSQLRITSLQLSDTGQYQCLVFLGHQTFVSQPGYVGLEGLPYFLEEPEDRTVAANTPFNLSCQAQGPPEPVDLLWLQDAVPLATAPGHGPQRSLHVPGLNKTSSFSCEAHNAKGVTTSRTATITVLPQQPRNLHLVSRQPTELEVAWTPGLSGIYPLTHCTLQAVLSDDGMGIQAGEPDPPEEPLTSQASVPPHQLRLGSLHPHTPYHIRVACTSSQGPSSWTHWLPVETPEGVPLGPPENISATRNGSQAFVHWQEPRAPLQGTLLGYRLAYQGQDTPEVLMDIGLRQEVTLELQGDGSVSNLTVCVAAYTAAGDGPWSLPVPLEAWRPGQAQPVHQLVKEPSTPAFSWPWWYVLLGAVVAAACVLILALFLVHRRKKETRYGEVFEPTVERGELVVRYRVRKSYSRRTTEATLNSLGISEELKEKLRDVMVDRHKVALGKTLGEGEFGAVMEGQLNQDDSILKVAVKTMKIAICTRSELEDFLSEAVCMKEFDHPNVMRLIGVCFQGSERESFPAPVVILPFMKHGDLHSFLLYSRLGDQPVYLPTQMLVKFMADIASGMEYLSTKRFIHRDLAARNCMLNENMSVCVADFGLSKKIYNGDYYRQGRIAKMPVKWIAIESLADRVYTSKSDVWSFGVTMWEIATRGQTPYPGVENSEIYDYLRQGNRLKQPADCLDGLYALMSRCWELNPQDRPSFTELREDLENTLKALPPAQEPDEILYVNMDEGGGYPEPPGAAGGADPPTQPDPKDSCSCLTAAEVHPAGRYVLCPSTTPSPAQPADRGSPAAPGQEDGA", "assay": "Cellular Axl phosphorylation ELISA assay (Gas6-stimulated 293MSR-AxlWT6 cells)", "type": "cell-based", "conditions": "Table 4A, read-out: CELL AXL IC50", "procedure": "Cellular Axl Phosphorylation ELISA Assay\nAfter 6-7 hrs in tissue culture incubator at 37° C. 5% CO2, medium was removed, serum-free medium was added (with 0.04% bovine serum albumin) and plates were returned to incubator where they remained overnight. […] Media was then removed and lysis buffer was added to wells and shaken at 4° C. for 30 min to generate protein lysates. Subsequently, phosphorylation of Axl was assessed by a sandwich ELISA method using a DuoSet IC Human Phospho-Axl ELISA assay kit (R&D System), an immobilized mouse anti-human Axl antibody and an anti-phospho-tyrosine-HRP antibody as a detection antibody. Antibody-coated plates were (a) incubated in presence of protein lysates at room temperature for 2 hrs, (b) washed seven times in 0.1% Tween 20 in PBS, (c) incubated with secondary antibody (a horseradish peroxidase-conjugated […]) for 2 hrs, (d) washed seven times again, (e) TMB peroxidase substrate (Bio-Rad) was added to initiate a colorimetric reaction and stopped by adding 0.2 N H2SO4, and (f) measured at OD 450 nm using a spectrophotometer. IC50 values were calculated by concentration-response curve fitting using a four-parameter analytic method and reported in μM.\nFor Table 4B, IC50 values were calculated by concentration-response curve fitting using a four-parameter analytic method and reported in nM.", "units": {"IC50": "nM"}, "values": [
      {"smiles": "COc1ccnc2[nH]cc(C3CCN(c4cc(C(=O)N[C@H](C)CO)nc(OC[C@H]5C[C@H]5C#N)n4)CC3)c12", "note": "[Example 377, 2-{[(1S,2R)-2-cyanocyclopropyl]methoxy}-N-[(2R)-1-hydroxypropan-2-yl]-6-[4-(4-methoxy-1H-pyrrolo[2,3-b]pyridin-3-yl)piperidin-1-yl]pyrimidine-4-carboxamide]", "IC50": 0.4},
      {"smiles": "N#C[C@@H]1C[C@@H]1COc1nc(C(=O)NC23CC(C2)C3)cc(N2CCC(COc3cncnc3N)C(F)(F)C2)n1", "note": "(single isomer, unassigned) [Example 62]", "IC50": 38.7},
      {"smiles": "C[C@H](CO)NC(=O)c1cc(N2CCC(COc3cc(-c4cn(C)cn4)cnc3N)CC2)nc(OCC2CC2)n1", "note": "[Example 384, 6-[4-({[2-amino-5-(1-methyl-1H-imidazol-4-yl)pyridin-3-yl]oxy}methyl)piperidin-1-yl]-2-(cyclopropylmethoxy)-N-[(2R)-1-hydroxypropan-2-yl]pyrimidine-4-carboxamide]", "IC50": 0.36},
      {"smiles": "CCNC(=O)c1nc(OCC2(C#N)CC2)nc(N2CCC(c3n[nH]c4ncccc34)CC2)n1", "note": "[Example 133, 4-(4-(1H-pyrazolo[3,4-b]pyridin-3-yl)piperidin-1-yl)-6-((1-cyanocyclopropyl)methoxy)-N-ethyl-1,3,5-triazine-2-carboxamide]", "IC50": 285},
      {"smiles": "C[C@@H](NC(=O)c1cc(N2CCC(c3ccc(N)c(C(N)=O)n3)CC2)nc(OCC2CC2(F)F)n1)C(C)(C)O", "note": "(single isomer, unassigned) [Example 16]", "IC50": 12.6},
      {"smiles": "COc1ccnc2[nH]nc(C3CCN(c4cc(C(=O)N[C@@H](C)C(F)(F)F)nc(OC[C@H]5CCO5)n4)CC3)c12", "note": "[Example 381, 6-[4-(4-methoxy-1H-pyrazolo[3,4-b]pyridin-3-yl)piperidin-1-yl]-2-[(2R)-oxetan-2-ylmethoxy]-N-[(2S)-1,1,1-trifluoropropan-2-yl]pyrimidine-4-carboxamide]", "IC50": 0.77},
      {"smiles": "CCOc1nc(C(=O)NC23CC(C2)C3)cc(N2CCC(c3nc(C(N)=O)ccc3OCCN(C)C)CC2)n1", "note": "[Example 41, N-(bicyclo[1.1.1]pent-1-yl)-6-(4-{6-carbamoyl-3-[2-(dimethylamino)ethoxy]pyridin-2-yl}piperidin-1-yl)-2-ethoxypyrimidine-4-carboxamide]", "IC50": 124},
      {"smiles": "C[C@H](NC(=O)c1cc(N2CCC(c3cccc(C(N)=O)n3)CC2)nc(OCC2(C#N)CC2)n1)C(F)(F)F", "note": "[Example 13, 6-[4-(6-carbamoylpyridin-2-yl)piperidin-1-yl]-2-[(1-cyanocyclopropyl)methoxy]-N-[(2S)-1,1,1-trifluoropropan-2-yl]pyrimidine-4-carboxamide]", "IC50": 59},
      {"smiles": "N#C[C@@H]1C[C@@H]1COc1nc(C(=O)NC(CCO)C(F)(F)F)cc(N2CCC(COc3cncnc3N)CC2)n1", "note": "(stereo partly drawn) [Example 63, 6-(4-{[(4-aminopyrimidin-5-yl)oxy]methyl}piperidin-1-yl)-2-{[(1S,2R)-2-cyanocyclopropyl]methoxy}-N-(1,1,1-trifluoro-4-hydroxybutan-2-yl)pyrimidine-4-carboxamide]", "IC50": 455},
      {"smiles": "COC[C@@H](C)Oc1nc(C(=O)NCC(F)(F)F)cc(N2CCC(c3ccc(N)c(C(N)=O)n3)CC2)n1", "note": "[Example 6, 6-[4-(5-amino-6-carbamoylpyridin-2-yl)piperidin-1-yl]-2-{[(2R)-1-methoxypropan-2-yl]oxy}-N-(2,2,2-trifluoroethyl) pyrimidine-4-carboxamide]", "IC50": 29.1},
      {"smiles": "N#C[C@@H]1C[C@@H]1COc1nc(C(=O)NC23CC(C2)C3)cc(N2CCC(c3n[nH]c4nccc(OCCO)c34)CC2)n1", "note": "[Example 65, N-(bicyclo[1.1.1]pent-1-yl)-2-{[(1S,2R)-2-cyanocyclopropyl]methoxy}-6-{4-[4-(2-hydroxyethoxy)-1H-pyrazolo[3,4-b]pyridin-3-yl]piperidin-1-yl}pyrimidine-4-carboxamide]", "IC50": 1.86},
      {"smiles": "CCNC(=O)c1cc(N2CCC(COc3cc(-c4cnn(C)c4)cnc3N)CC2)nc(OCC(C)O)n1", "note": "(stereo not drawn) [Example 45, 6-[4-({[2-amino-5-(1-methyl-1H-pyrazol-4-yl)pyridin-3-yl]oxy}methyl)piperidin-1-yl]-N-ethyl-2-(2-hydroxypropoxy) pyrimidine-4-carboxamide]", "IC50": 235},
      {"smiles": "COC[C@@H](C)Oc1nc(C(=O)NC2CCC2)nc(N2CCC(c3ccc(N)c(C(N)=O)n3)CC2)n1", "note": "[Example 40, 4-[4-(5-amino-6-carbamoylpyridin-2-yl)piperidin-1-yl]-N-cyclobutyl-6-{[(2R)-1-methoxypropan-2-yl]oxy}-1,3,5-triazine-2-carboxamide]", "IC50": 5.77},
      {"smiles": "N#C[C@@H]1C[C@@H]1COc1nc(C(=O)NC23CC(C2)C3)cc(N2CC[C@@H](c3n[nH]c4ncccc34)[C@@H](F)C2)n1", "note": "(single isomer, unassigned) [Example 78]", "IC50": 8.42},
      {"smiles": "COc1ccnc2[nH]cc(C3CCN(c4nc(OC[C@H]5C[C@H]5C#N)nc(C(=O)N[C@@H](C)C(F)(F)F)n4)CC3)c12", "note": "[Example 379, 4-{[(1S,2R)-2-cyanocyclopropyl]methoxy}-6-[4-(4-methoxy-1H-pyrrolo[2,3-b]pyridin-3-yl)piperidin-1-yl]-N-[(2S)-1,1,1-trifluoropropan-2-yl]-1,3,5-triazine-2-carboxamide]", "IC50": 0.2},
      {"smiles": "COC[C@@H](C)Oc1nc(C(=O)N[C@H](C)CN(C)C)cc(N2CCC(c3ccc(N)c(C(N)=O)n3)CC2)n1", "note": "(single isomer, unassigned) [Example 36]", "IC50": 87.4},
      {"smiles": "N#C[C@@H]1C[C@@H]1COc1nc(C(=O)NC23CC(C2)C3)nc(N2CCC(COc3cncnc3N)CC2)n1", "note": "[Example 66, 4-(4-{[(4-aminopyrimidin-5-yl)oxy]methyl}piperidin-1-yl)-N-(bicyclo[1.1.1]pent-1-yl)-6-{[(1S,2R)-2-cyanocyclopropyl]methoxy}-1,3,5-triazine-2-carboxamide]", "IC50": 61.8},
      {"smiles": "CCNC(=O)c1cc(N2CCC(COc3cc(C#N)cnc3N)CC2)nc(O[C@H](C)COC)n1", "note": "[Example 21, 6-(4-{[(2-amino-5-cyanopyridin-3-yl)oxy]methyl}piperidin-1-yl)-N-ethyl-2-{[(2R)-1-methoxypropan-2-yl]oxy}pyrimidine-4-carboxamide]", "IC50": 37},
      {"smiles": "C[C@@H](NC(=O)c1cc(N2CCC(c3ccc(N)c(C(N)=O)n3)CC2)nc(OCC2CC2(F)F)n1)C(C)(C)O", "note": "(single isomer, unassigned) [Example 15]", "IC50": 8.36},
      {"smiles": "CS(=O)(=O)COc1ccnc2[nH]nc(C3CCN(c4cc(C(=O)NC56CC(C5)C6)nc(OC[C@H]5C[C@H]5C#N)n4)CC3)c12", "note": "[Example 67, N-(bicyclo[1.1.1]pent-1-yl)-2-{[(1S,2R)-2-cyanocyclopropyl]methoxy}-6-(4-{4-[(methylsulfonyl)methoxy]-1H-pyrazolo[3,4-b]pyridin-3-yl}piperidin-1-yl)pyrimidine-4-carboxamide]", "IC50": 18.7},
      {"smiles": "COC[C@@H](C)Oc1nc(C(=O)NC2CCC2)cc(N2CCC(c3ccc(N)c(C(N)=O)n3)CC2)n1", "note": "[Example 4, 6-[4-(5-amino-6-carbamoylpyridin-2-yl)piperidin-1-yl]-N-cyclobutyl-2-{[(2R)-1-methoxypropan-2-yl]oxy}pyrimidine-4-carboxamide]", "IC50": 2.83},
      {"smiles": "N#C[C@@H]1C[C@@H]1COc1nc(C(=O)NCC2CC2)nc(N2CCC(c3ccc(N)c(C(N)=O)n3)CC2)n1", "note": "[Example 87, 4-[4-(5-amino-6-carbamoylpyridin-2-yl)piperidin-1-yl]-6-{[(1S,2R)-2-cyanocyclopropyl]methoxy}-N-(cyclopropyl-methyl)-1,3,5-triazine-2-carboxamide]", "IC50": 66},
      {"smiles": "CN(C)CCOc1ccc(C(N)=O)nc1C1CCN(c2cc(C(=O)NC3CCC3)nc(OC[C@@H]3C[C@@H]3C#N)n2)CC1", "note": "[Example 37, 6-(4-{6-carbamoyl-3-[2-(dimethylamino)ethoxy]pyridin-2-yl}piperidin-1-yl)-2-{[(1R,2S)-2-cyanocyclopropyl]methoxy}-N-cyclobutyl-pyrimidine-4-carboxamide]", "IC50": 242},
      {"smiles": "C[C@H](CO)NC(=O)c1cc(N2CCC(c3n[nH]c4ncccc34)CC2)nc(OC[C@@H]2CCOC2)n1", "note": "[Example 382, N-[(2R)-1-hydroxypropan-2-yl]-6-[4-(1H-pyrazolo[3,4-b]pyridin-3-yl)piperidin-1-yl]-2-[(3R)-tetrahydrofuran-3-ylmethoxy]pyrimidine-4-carboxamide]", "IC50": 154},
      {"smiles": "N#C[C@@H]1C[C@@H]1COc1nc(C(=O)NCC(F)(F)F)cc(N2CCC(COc3cncnc3N)CC2)n1", "note": "[Example 33, 6-(4-{[(4-aminopyrimidin-5-yl)oxy]methyl}piperidin-1-yl)-2-{[(1S,2R)-2-cyanocyclopropyl]methoxy}-N-(2,2,2-trifluoroethyl) pyrimidine-4-carboxamide]", "IC50": 23.4},
      {"smiles": "CCNC(=O)c1cc(N2CCC(COc3cc(-c4cn(C)cn4)cnc3N)CC2)nc(O[C@H](C)COC)n1", "note": "[Example 68, 6-[4-({[2-amino-5-(1-methyl-1H-imidazol-4-yl)pyridin-3-yl]oxy}methyl)piperidin-1-yl]-N-ethyl-2-{[(2R)-1-methoxypropan-2-yl]oxy}pyrimidine-4-carboxamide]", "IC50": 2.94},
      {"smiles": "N#C[C@@H]1C[C@@H]1COc1nc(C(=O)NC23CC(C2)C3)cc(N2CC[C@H](c3n[nH]c4ncccc34)[C@H](F)C2)n1", "note": "(single isomer, unassigned) [Example 79]", "IC50": 56.4}
    ]}
  ]
}
